Laboratory results from ChEMBL document CHEMBL4622952, “Synthesis and biological evaluation of Schizandrin derivatives as tubulin polymerization inhibitors” (Bioorg Med Chem Lett, 2020).
Activity calls are given as the source filed them. No cut-off for these calls is given here.

Legend:
[1] = target: T1, Tubulin (Homo sapiens) (UniProt P68371+Q9H4B7+P0DPH7+P68366+Q13509+Q71U36+P04350+Q3ZCM7+P07437+P68363+Q9BQE3+Q6PEY2+Q13885+Q9BVA1+Q9BUF5); assay: Inhibition of tubulin […] in human DU145 cells assessed as increase in soluble fraction of tubulin at […] measured after 24 hrs by Western blot analysis; type: cell-based; details: DU-145
[2] = Induction of apoptosis in human RKOP3 cells assessed as early apoptotic cells at 1.5 uM measured after 48 hrs by annexinV-FITC/propidium iodide staining based flow cytometry analysis (reference value: 1.8 %); type: functional
[3] = Cell cycle arrest in human RKOP3 cells assessed as accumulation at G0/G1 phase at 5 uM measured after 24 hrs by propidium iodide staining based flow cytometry analysis (reference value: 59.59 %); type: functional
[4] = Induction of apoptosis in human RKOP3 cells assessed as late apoptotic cells at 3.3 uM measured after 48 hrs by annexinV-FITC/propidium iodide staining based flow cytometry analysis (reference value: 0.01 %); type: functional
[5] = test system: HEK293; assay: Cytotoxicity against human HEK293 cells assessed as reduction in cell viability measured after 48 hrs by MTT assay; type: cell-based; details: Homo sapiens, HEK293, 48 h; read-out: IC50
[6] = Induction of apoptosis in human RKOP3 cells assessed as late apoptotic cells at 1.5 uM measured after 48 hrs by annexinV-FITC/propidium iodide staining based flow cytometry analysis (reference value: 0.01 %); type: functional
[7] = Induction of apoptosis in human RKOP3 cells assessed as early apoptotic cells at 5 uM measured after 48 hrs by annexinV-FITC/propidium iodide staining based flow cytometry analysis (reference value: 1.8 %); type: functional
[8] = Induction of apoptosis in human RKOP3 cells assessed as necrotic cells at 3.3 uM measured after 48 hrs by annexinV-FITC/propidium iodide staining based flow cytometry analysis (reference value: 0 %); type: functional
[9] = Cell cycle arrest in human RKOP3 cells assessed as accumulation at G0/G1 phase at 1.5 uM measured after 24 hrs by propidium iodide staining based flow cytometry analysis (reference value: 59.59 %); type: functional
[10] = Induction of apoptosis in human RKOP3 cells assessed as late apoptotic cells at 5 uM measured after 48 hrs by annexinV-FITC/propidium iodide staining based flow cytometry analysis (reference value: 0.01 %); type: functional
[11] = Induction of apoptosis in human RKOP3 cells assessed as early apoptotic cells at 3.3 uM measured after 48 hrs by annexinV-FITC/propidium iodide staining based flow cytometry analysis (reference value: 1.8 %); type: functional
[12] = Induction of apoptosis in human RKOP3 cells assessed as live cells at 1.5 uM measured after 48 hrs by annexinV-FITC/propidium iodide staining based flow cytometry analysis (reference value: 98.19 %); type: functional
[13] = test system: DU-145; assay: Antiproliferative activity against human DU145 cells assessed as reduction in cell viability measured after 48 hrs by MTT assay; type: functional, cell-based
[14] = target: T1, Tubulin (Homo sapiens); assay: Inhibition of tubulin polymerization in human HeLa cells assessed as disruption of microtubule network at 10 uM measured after 24 hrs by immunofluorescence assay; type: cell-based
[15] = Induction of apoptosis in human RKOP3 cells assessed as necrotic cells at 1.5 uM measured after 48 hrs by annexinV-FITC/propidium iodide staining based flow cytometry analysis (reference value: 0 %); type: functional
[16] = Cell cycle arrest in human RKOP3 cells assessed as accumulation at G0/G1 phase at 3.3 uM measured after 24 hrs by propidium iodide staining based flow cytometry analysis (reference value: 59.59 %); type: functional
[17] = Induction of apoptosis in human RKOP3 cells assessed as live cells at 5 uM measured after 48 hrs by annexinV-FITC/propidium iodide staining based flow cytometry analysis (reference value: 98.19 %); type: functional
[18] = Induction of apoptosis in human RKOP3 cells assessed as necrotic cells at 5 uM measured after 48 hrs by annexinV-FITC/propidium iodide staining based flow cytometry analysis (reference value: 0 %); type: functional
[19] = species: Homo sapiens; assay: (§1) Antiproliferative activity against human RKOP3 cells assessed as reduction in cell viability measured after 48 hrs by MTT assay; type: functional, cell-based
[20] = as §1; type: functional, cell-based
[21] = test system: HeLa; assay: Antiproliferative activity against human HeLa cells assessed as reduction in cell viability measured after 48 hrs by MTT assay; type: functional, cell-based
[22] = test system: A549; assay: Antiproliferative activity against human A549 cells assessed as reduction in cell viability measured after 48 hrs by MTT assay; type: functional, cell-based
[23] = Induction of apoptosis in human RKOP3 cells assessed as live cells at 3.3 uM measured after 48 hrs by annexinV-FITC/propidium iodide staining based flow cytometry analysis (reference value: 98.19 %); type: functional

CCCCCCCCCC(=O)O/N=C1\C=C2C[C@H](C)[C@@]3(C)Cc4cc(OC)c(OC)c(OC)c4C23C(OC)=C1OC (stereo partly specified)
inhibition [1]: Active | Activity [2]: 7.02% | Activity [3]: 50.56% | Activity [4]: 0.29% | IC50 [5]: 84.5 µM | Activity [6]: 0.57% | Activity [7]: 21.6% | Activity [8]: 0.02% | Activity [9]: 60.68% | Activity [10]: 2.3% | Activity [11]: 9.05% | Activity [12]: 92.41% | inhibition [13]: Dose-dependent effect | IC50 ([13]; DU-145, 48 h): 10.5 µM | inhibition [14]: Active | Activity [15]: 0% | Activity [16]: 55.32% | Activity [17]: 76.06% | Activity [18]: 0.04% | inhibition [19]: Dose-dependent effect | IC50 [20]: 3.35 µM | IC50 [21]: 60.2 µM | inhibition [21]: Dose-dependent effect | inhibition [22]: Dose-dependent effect | IC50 ([22]; A549, 48 h): 12.3 µM | Activity [23]: 90.64%
